In patent US20230159468A1, “NOVEL FORMS OF PRACINOSTAT DIHYDROCHLORIDE” (Macfarlan Smith Limited, priority 2020, published 2023):
Values after ≈ are worked out from the molar mass of the structure shown. Values joined by “and” are separate entries in the source; they are usually repeats but may differ in a detail not shown here. Equal values may be shown once. Read-outs that look alike come from different tables or passages of the source. Values belong to the compound of their own block, whether it stands above or below them.

How the values were obtained:
Type in all cases: physicochemical
[1] = Dynamic vapor sorption (DVS) with XRPD analysis post-DVS; conditions: for Solid form by XRPD analysis post-DVS: after DVS; for DVS weight change / Hygroscopicity by DVS: between 0-90% RH
Source text: Techniques for characterizing crystal and amorphous forms include but are not limited to differential scanning calorimetry (DSC), thermal gravimetric analysis (TGA), dynamic vapor sorption (DVS), X-ray powder diffractometry (XRPD), single crystal X-ray diffraction (SCXRD), proton nuclear magnetic resonance (^1H-NMR), Fourier transform infrared spectroscopy (FTIR Spectroscopy), and Optical Microscopy.

[2] = Solubility in solvent mixture of isopropyl alcohol and water; conditions: organic solvent or mixture, isopropyl alcohol:water about 8:1 (v/v), about 58° C.
Source text: In one embodiment, the volume ratio of isopropyl alcohol to water in the solvent mixture is about 7-9:1; particularly about 8:1. In one embodiment, the solution of pracinostat diHCl is a saturated solution. […] Another embodiment optionally further comprises filtering the combination of pracinostat diHCl and solvent mixture to ensure no particles remain, i.e., to obtain the solution of pracinostat diHCl. In a particular embodiment, the weight to volume ratio of pracinostat diHCl to the solvent mixture is about 84-104 mg:1 mL; particularly about 94 mg:1 mL, wherein if the pracinostat diHCl is not fully dissolved in the solvent mixture, the combination of pracinostat diHCl and solvent mixture is filtered to obtain the solution of pracinostat diHCl. In one embodiment, the weight to volume ratio of Eudragit RS PO to the solution of pracinostat diHCl is about 3.75-6.25 mg:1 mL. In one embodiment, the weight ratio of Eudragit RS PO to pracinostat diHCl is about 1 mg: 14-16 mg. Another embodiment further comprises applying heating during the combining or using a solvent mixture that is heated. In another embodiment, the heating occurs at about 50-70° C. (particularly about 60° C.), or the solvent mixture is heated to about 50-70° C. (particularly about 60° C.). In one embodiment, the cooling is to about 0-10° C., particularly to about 5° C. […]

[3] = Solubility studies in pH buffer at 37° C. with HPLC analysis; conditions: for Observation-1 hr / Observation-4 hr: ~6 mg in 5 mL; for solubility at 1 h / solubility at 4 h: pH buffer, 37 °C, thermodynamic from solid
Procedure: Solubility studies are conducted on the pracinostat diHCl co-crystal with fumaric acid according to the following method:
1. Weigh out ˜6 mg pracinostat diHCl co-crystal with fumaric acid in 5 mL pH buffer;
2. Stir samples at 37° C.;
3. After 1 hour, test and record pH, then remove a 2 mL sample for HPLC analysis;
4. Adjust pH of remaining solution using 0.2M NaOH or HCl, if necessary;
5. After 4 hours, test and record pH, then remove a 2 mL sample for HPLC analysis.
The solubility data are collected using an Agilent 1100 Series HPLC system and analyzed using Chemstation software. The method details are listed below.

[4] = Stability studies at 40° C./75% RH, evidenced by XRPD; conditions: open vial covered with Kimwipes and sealed vial
[5] = starting pH 1.75 buffer, single experiments
[6] = starting pH 7.26 buffer, single experiments

Structure (SMILES): CCCCc1nc2cc(/C=C/C(=O)NO)ccc2n1CCN(CC)CC [pracinostat diHCl co-crystal with L-arginine]
Solid form by XRPD analysis post-DVS [1]: not stable | DVS weight change [1]: ~12% | Hygroscopicity by DVS [1]: hygroscopic

Structure (SMILES): CCCCc1nc2cc(/C=C/C(=O)NO)ccc2n1CCN(CC)CC [pracinostat diHCl co-crystal with glycine]
Solid form by XRPD analysis post-DVS [1]: remains unchanged | DVS weight change [1]: ~8.0% | Hygroscopicity by DVS [1]: hygroscopic

Structure (SMILES): CCCCc1nc2cc(/C=C/C(=O)NO)ccc2n1CCN(CC)CC [pracinostat diHCl, (E)-3-(2-Butyl-1-(2-(diethylamino)ethyl)-1H-benzo[d]imidazol-5-yl)-N-hydroxyacrylamide]
solubility [2]: ~82600 µg/mL

More lines, now with the values ahead:

Solubility (mg/mL) 1 hr [3, 5]: >0.75 mg/mL and >0.98 mg/mL | Solubility (mg/mL) 4 hr [3, 5]: >0.81 mg/mL and >0.98 mg/mL | Observation-1 hr ([3]; starting pH 1.75 buffer): Clear | Observation-4 hr ([3]; starting pH 1.75 buffer): Clear | Solubility (mg/mL) 1 hr [3, 6]: 0.16 mg/mL and 0.17 mg/mL | Solubility (mg/mL) 4 hr [3, 6]: 0.12 mg/mL and 0.09 mg/mL | Observation-1 hr ([3]; starting pH 7.26 buffer): Cloudy | Observation-4 hr ([3]; starting pH 7.26 buffer): Cloudy | Time stable (solid form, by XRPD) [4]: at least 9 months | Solid form by XRPD analysis post-DVS [1]: remains unchanged | DVS weight change [1]: ~1.7% | Hygroscopicity by DVS [1]: slightly hygroscopic
Structure (SMILES): CCCCc1nc2cc(/C=C/C(=O)NO)ccc2n1CCN(CC)CC [pracinostat diHCl co-crystal with fumaric acid]

solubility at 1 h ([3]; pH 1.75, simulated gastric fluid, starting pH 1.75 buffer, single experiments, read-out: Solubility (mg/mL) 1 hr): > 1.07 mg/mL | solubility at 4 h ([3]; pH 1.75, simulated gastric fluid, starting pH 1.75 buffer, single experiments, read-out: Solubility (mg/mL) 4 hr): > 1.08 mg/mL | solubility at 1 h ([3]; pH 7.26, aqueous buffer, starting pH 7.26 buffer, average of Exp. 4-6, read-out: Avg. Solubility ± STD (mg/mL) 1 hr): 0.16 ± 0.01 mg/mL (≈ 446 µM) | solubility at 1 h ([3]; pH 7.26, aqueous buffer, starting pH 7.26 buffer, single experiments, read-out: Solubility (mg/mL) 1 hr): 0.14 mg/mL (≈ 391 µM) | solubility at 4 h ([3]; pH 7.26, aqueous buffer, starting pH 7.26 buffer, average of Exp. 4-6, read-out: Avg. Solubility ± STD (mg/mL) 4 hr): 0.1 ± 0.02 mg/mL (≈ 279 µM) | solubility at 4 h ([3]; pH 7.26, aqueous buffer, starting pH 7.26 buffer, single experiments, read-out: Solubility (mg/mL) 4 hr): 0.08 mg/mL (≈ 223 µM)
Structure (SMILES): CCCCc1nc2cc(/C=C/C(=O)NO)ccc2n1CCN(CC)CC
